From patent US5478825A, “5-(substituted amino)-1,2,4-triazolo (1,5-A) pyrimidine derivatives” (Egis Gyogyszergyar, priority 1991, dated 1995)

Experiments:
motility of mice = assay: Motility inhibiting activity; format: in vivo; settings: for Change in motility vs control: 100 mg/kg, orally
Procedure: 5. Motility inhibiting activity
The tests were performed according to the method of Borsy et al. [Arch. Int. Pharmacodyn. 124, 1-2 (1960)]. Groups consisting of 3 mice each were treated orally with different doses of the compounds to be tested. Then the test animals were placed in a Dews equipment. In this equipment the number of interruptions of infrared beam within 30 minutes was counted. The inhibition is expressed as the percentage of the value obtained for the control animals.

pentetrazole spasm = assay: Spasmolytic activity on mice (pentetrazole spasm); format: in vivo; settings: orally; for Inhibition of pentetrazole spasm: 100 mg/kg, pentetrazole 125 mg/kg i.p.
Procedure: 7. Spasmolytic activity on mice
The tests were carried out according to the modified method of Benzinger and Hane [Arch. Int. Pharmacodyn. 167, 245-249 (1959)]. Mice of both sexes (NMRI breed, body weight 20-25 g) were treated orally with the compounds to be tested. One hour after the administration pentetrazole (6,7,8,9-tetrahydro-5H-tetrazoloazepine) was given intraperitoneally in a dosis of 125 mg/kg. The tonic-extensoric spasms on the hind limbs were registered. As reference compound 3,5,5-trimethyl-oxazolidine-2,4-dione (trimetadione) was used.

hexobarbital narcosis = assay: Narcosis potentiating activity (hexobarbital); format: in vivo, mice; settings: for Narcosis potentiating effect: 100 mg/kg, orally, frequency of positive reaction, hexobarbital 40 mg/kg i.v.
Procedure: 6. Narcosis potentiating activity
Groups consisting of 6 mice each were orally treated with the compound to be examined. After one hour, hexobarbital [5-(1-cyclohexenyl)-1,5-dimethylbarbituric acid] was injected intravenously at a dosage of 40 mg/kg. The control group was treated only with hexobarbital to provoke sleep. The duration of sleep was recorded. If the duration of sleep of an animal exceeded that of the mean value of the control group by a factor of 2.5, it was considered as a positive reaction. The frequency of the positive reaction is expressed as the percentage of the value obtained for the control animals.

gastric acid secretion = assay: Gastric acid secretion test; format: in vivo, rat
Procedure: 8. […] Rats of both sexes (Wistar breed, weighing 180-240 g) were fastened for 48 hours. On the day of the test the pylorus of the animals was bound under ether narcosis. The test compounds were administered orally 3 hours before the operation. 4 hours after the operation the animals were anaesthetized and the stomach was removed, the content thereof was centrifuged and the amount of the free acid was determined by titration, in the presence of Topfer reagent. The inhibition in relation to the control is calculated in percentage.

[1] = tested on: rats (vasopressin induced coronaria insufficiency); assay: Antianginal effect in rats (vasopressin induced coronaria insufficiency); format: in vivo; settings: Rattus norvegicus, iv; i.v. 2 minutes prior to vasopressin; T wave in ECG
Procedure: 3.a) Antianginal effect in rats
Rats weighing 180-220 g were narcotized with chloralose-urethane (70/700 mg/kg i.p.). The ECG was registered with needle electrodes in standard II leading. The experimental coronaria insufficiency was induced with vasopressin (1 NE/kg i.v.). The height of T wave in ECG was measured before and after the administration of vasopressin in both the control and treated groups. Test compounds were administered intravenously 2 minutes prior to the treatment with vasopressin.

`C1Cc2nc3nc(N4CCOCC4)nn3c(N3CCOCC3)c2C1` [Example 15, 2,5-Dimorpholino-6,7-dihydro-8H-cyclopenta[d]-1,2,4-triazolo[1,5-a]pyrimidine] was tested. Which “Change in motility vs control” value (motility of mice) did it give?
The value was -65%.

What about the “Inhibition of pentetrazole spasm” value (pentetrazole spasm) of the same molecule?
The value was -50%.

For `OCCN(CCO)c1c2c(nc3nc(N4CCOCC4)nn13)CCC2` [Example 11, 5-[N-bis(2-Hydroxyethyl)]amino-2-morpholino-6,7-dihydro-8H-cyclopenta[d]-1,2,4-triazolo[1,5-a]pyrimidine], which Narcosis potentiating effect (hexobarbital narcosis) is on record?
Its Narcosis potentiating effect is 67%.

`CN1C(=O)OC(C)(C)C1=O` [Trimetadione, 3,5,5-trimethyl-oxazolidine-2,4-dione, reference compound] was tested. Which ED50 (pentetrazole spasm; Mus musculus, po, read-out: ED50 (inhibition of pentetrazole spasm)) did it give?
Its ED50 is 400 mg/kg.

Which “Inhibition (gastric acid secretion)” value (gastric acid secretion; 200 mg/kg p.o.) does the source give for `CN/C(=N/CCSCc1nc[nH]c1C)NC#N` [Cimetidine, reference compound] here?
Its value is 91%.

With `CCCC(C)(COC(N)=O)COC(N)=O` [Meprobamate, reference compound] as the molecule, how does the ED50 (motility of mice; Mus musculus, po, read-out: ED50 (motility inhibition)) read?
The ED50 was 232 mg/kg.

What about the “motility inhibition (in words)” value (motility of mice; dose of 100 mg/kg) of the same molecule?
Its value is “inactive”.

And the ED50 (hexobarbital narcosis; Mus musculus, po, read-out: ED50 (narcosis potentiating effect))?
Its ED50 is 260 mg/kg.

And the “narcosis potentiating effect (in words)” value (hexobarbital narcosis; dose of 100 mg/kg)?
Its value is “inactive”.

`C1CCN(c2c3c(nc4nc(N5CCOCC5)nn24)CCC3)CC1` [Example 16, 2-Morpholino-5-piperidino-6,7-dihydro-8H-cyclopenta[d]-1,2,4-triazolo[1,5-a]pyrimidine] was tested. Which ED50 [1] did it give?
The ED50 was 1.52 mg/kg.

What about the “Change in motility vs control” value (motility of mice) of the same molecule?
Its value is -53%.

For `COc1cc(C(=S)N2CCOCC2)cc(OC)c1OC` [Trithiozine, reference compound], which “Inhibition (gastric acid secretion)” value (gastric acid secretion; 400 mg/kg p.o.) is on record?
Its value is 63%.

Which Narcosis potentiating effect (hexobarbital narcosis) does the source give for `Cc1cc(N(CCO)Cc2ccccc2)n2nc(N3CCOCC3)nc2n1` [Example 24, 5-[N-Benzyl-N-(2-hydroxyethyl)]amino-7-methyl-2-morpholino-1,2,4-triazolo[1,5-a]pyrimidine] here?
Its Narcosis potentiating effect is 67%.

Which “Inhibition (gastric acid secretion)” value (gastric acid secretion; 200 mg/kg p.o.) does the source give for `CCN(CC)c1c2c(nc3nc(SC)nn13)CCC2` [Example 1, 5-(Diethylamino)-2-(methylthio)-6,7-dihydro-8H-cyclopenta[d]-1,2,4-triazolo[1,5-a]pyrimidine] here?
Its value is 75%.

With `CSc1nc2nc3c(c(NCCN4CCOCC4)n2n1)CCCC3` [Example 18, 2-(Methylthio)-5-[N-(2-morpholinoethyl)]amino-6,7,8,9-tetrahydro-1,2,4-triazolo[5,1-b]quinazoline] as the molecule, how does the “Inhibition of pentetrazole spasm” value (pentetrazole spasm) read?
The value was -56%.
